The test system of data set [1] is galactitol levels in the lens of galactosemic subjects. Put plainly: lowering of galactitol levels in the lens of galactosemic subjects. The format is in vivo. Particulars: statement in words. The method, then:
(§1) The activity of the compounds of the present invention, as agents for the control of chronic diabetic complications, is determined by their ability to successfully pass one or more of the following standard biological and/or pharmacological tests, viz., (1) measuring their ability to inhibit the enzyme activity of isolated aldose reductase; (2) measuring their ability to reduce or inhibit sorbitol accumulation in the sciatic nerve of acutely streptozotocinized (i.e., diabetic) rats; (3) measuring their ability to reverse already-elevated sorbitol levels in the sciatic nerve and lens of chronic streptozotocin-induced diabetic rats; (4) measuring their ability to prevent or inhibit galactitol formation in the lens of acutely galactosemic rats, and (5) measuring their ability to delay cataract formation and reduce the severity of lens opacities in chronic galactosemic rats.

The subject of data set [2] is sorbitol levels in the lens and sciatic nerve of diabetic subjects. Put plainly: lowering of sorbitol levels in the lens and nerve of diabetic subjects. The class given is in vivo. The following applies: statement in words. The method, then:
as §1

Another data set concerns the target T1, aldose reductase (Bos taurus, UniProt P16116).
T1 construct: partially purified aldose reductase enzyme obtained from calf lens; from tissue; host or cells: calf lens
Put plainly: inhibition of isolated aldose reductase enzyme activity (procedure of S. Hayman et al. as modified by K. Sestanj et al.). Particulars: for IC50: partially purified aldose reductase from calf lens, 50% reduction in enzyme activity, read-out: Concentration Level (IC50); for aldose reductase inhibitory activity: statement in words. The format is biochemical, calf. The method, then: as §1, with “rats. The following tetrahydroquinoline-derived spiro-hydantoin compounds of Examples 1-4, respectively, were tested for their ability to reduce or inhibit aldose reductase enzyme activity via the procedure of S. Hayman et al., as described in the Journal of Biological Chemistry, Vol. 240, p. 877 (1965) and as modified by K. Sestanj et al. in U.S. Pat. No. 3,821,383. In every case, the substrate employed was partially purified aldose reductase enzyme obtained from calf lens.” for “rats.”

A short description of data set [3]: toxic side effects in diabetic rats, oral. The format is in vivo, rat. The following applies: 5.0 mg./kg. to 25 mg./kg. The source says:
(§2) As previously indicated, the tetrahydroquinoline-derived spiro-hydantoin compounds of this invention are all readily adapted to therapeutic use as aldose reductase inhibitors for the control of chronic diabetic complications, in view of their ability to reduce lens sorbitol levels in diabetic subjects to a statistically significant degree. […] The other compounds of this invention also cause similar results. Furthermore, all the herein described compounds of this invention can be administered by either the oral or parenteral routes of administration, for the present purposes at hand, without causing any significant untoward pharmacological side reactions to occur in the subject to whom they are so administered. In general, these compounds are ordinarily administered in dosages ranging from about 0.25 mg. to about 25 mg. per kg. of body weight per day, although variations will necessarily occur depending upon the weight and condition of the subject being treated and the particular route of administration chosen.

Data set [4] concerns formation of sorbitol levels in diabetic rats. Description: inhibition of formation of sorbitol levels in diabetic rats, oral. The following applies: 5.0 mg./kg. to 25 mg./kg. The format is in vivo, rat.
Source text: as §2

With `CN1CCC2(NC(=O)NC2=O)c2ccccc21.Cl` (stereo not drawn) [Product of Example 1, 1'-methyl-1',2',3',4'-tetrahydro-spiro-[imidazolidine-4,4'-quinoline]-2,5-dione hydrochloride], the “lowering galactitol levels in the lens of galactosemic subjects” value (“lowering galactitol levels in the lens” for short) in data set [1] was “extremely effective”. In data set [2], the “lowering sorbitol levels in the lens and sciatic nerve of diabetic subjects” value (shortened to “lowering sorbitol levels”) is on record as “extremely effective”. Further, on aldose reductase, the IC50 came out at 50 µM and the “aldose reductase inhibitory activity” value is given as “highly potent”.
As for `CN1CCC2(NC(=O)NC2=O)c2cccnc21` (stereo not drawn) [Product of Example 2, 1'-methyl-1',2',3',4'-tetrahydro-spiro-[imidazolidine-4,4'-pyrido(2,3-b)pyridine]-2,5-dione], the “lowering galactitol levels in the lens” value in data set [1] was “extremely effective”. In data set [2], the “lowering sorbitol levels” value is “extremely effective”. For the same compound, on aldose reductase, the IC50 was 10 µM and the “aldose reductase inhibitory activity” value is reported as “highly potent”.
In the case of `O=C1NC(=O)C2(CCNc3cc(Cl)ccc32)N1` (stereo not drawn) [Product of Example 3, 7'-chloro-1',2',3',4'-tetrahydro-spiro-[imidazolidine-4,4'-quinoline]-2,5-dione], the “lowering galactitol levels in the lens” value in data set [1] is on record as “extremely effective”. Moreover, the “lowering sorbitol levels” value in data set [2] is reported as “extremely effective”. At aldose reductase, the IC50 was found to be 10 µM and the “aldose reductase inhibitory activity” value is given as “highly potent”.
With `O=C1NC(=O)C2(CCNc3ccc(Cl)cc32)N1` (stereo not drawn) [Product of Example 4, 6'-chloro-1',2',3',4'-tetrahydro-spiro-[imidazolidine-4,4'-quinoline]-2,5-dione], the toxic side effects entry in data set [3] was “without showing any substantial signs of toxic side effects”. Further, the “lowering galactitol levels in the lens” value in data set [1] is recorded as “extremely effective”. Moreover, the “control (i.e., inhibit) the formation of sorbitol levels in diabetic rats” value in data set [4] is reported as “to a significantly high degree”. In data set [2], the “lowering sorbitol levels” value is listed as “extremely effective”. At aldose reductase, the IC50 was determined as 1 µM and the “aldose reductase inhibitory activity” value is “highly potent”.

These data come from patent US4235911A, “Hydantoin derivatives” (Pfizer Inc., priority 1979, dated 1980).
